{"source": "paper PMC9090141", "about": "(Pediatric blood & cancer, 2021)", "key": {"[1]": {"system": "pediatric cancer cell lines", "settings": "cited from earlier work"}, "[2]": {"assay": "Plasma pharmacokinetics in cycle 1", "assay_type": "in vivo, human", "settings": "for Tmax / half-life / concentration at 24 h / AUC(0-inf) / AUC(0-t) / Cmax: plasma; for concentration at 24 h: RP2D (150 mg/m^2)"}, "[3]": {"settings": "in vivo; cited from earlier work"}, "[4]": {"system": "pCHK1", "settings": "cited from earlier work"}, "[5]": {"settings": "80 mg/m^2 IV over 60 min, first dose cycle 1, 6 patients"}, "[6]": {"settings": "100 mg/m^2 IV over 60 min, first dose cycle 1, 6 patients"}, "[7]": {"settings": "125 mg/m^2 IV over 60 min, first dose cycle 1, 5 patients"}, "[8]": {"settings": "150 mg/m^2 IV over 60 min, first dose cycle 1, 12 patients"}, "[9]": {"settings": "All Patients (80-150 mg/m^2), first dose cycle 1, 29 patients"}}, "note": "Values joined by “and” are separate entries in the source; they are usually repeats but may differ in a detail not shown here. Identical values can stand only once. “Also recorded” adds a separate entry of the source. Counter-ions that a name gives are not always drawn.", "data": [{"smiles": "COc1cccc(OCCCN)c1-c1cc(Nc2cnc(C#N)cn2)n[nH]1", "note": "[prexasertib, Prexasertib mesylate monohydrate]", "values": [{"measurement": "inhibition of cell proliferation, potency", "setting": "[1]", "result": "low nanomolar concentrations"}, {"measurement": "CLp", "setting": "[2]; [5]", "result": "48.2 ± 11.5", "unit": "L/hr/m^2"}, {"measurement": "Vss", "setting": "[2]; [5]", "result": "245 ± 67", "unit": "L/m^2"}, {"measurement": "CLp", "setting": "[2]; [6]", "result": "45.1 L/hr/m^2 and 45.1 ± 12.6 L/hr/m^2"}, {"measurement": "Vss", "setting": "[2]; [6]", "result": "332 ± 85", "unit": "L/m^2"}, {"measurement": "CLp", "setting": "[2]; [7]", "result": "49.3 ± 10.3", "unit": "L/hr/m^2"}, {"measurement": "Vss", "setting": "[2]; [7]", "result": "292 ± 169", "unit": "L/m^2"}, {"measurement": "CLp", "setting": "[2]; [8]", "result": "44.4 L/hr/m^2 and 44.4 ± 13.5 L/hr/m^2"}, {"measurement": "Vss", "setting": "[2]; [8]", "result": "257 ± 98", "unit": "L/m^2"}, {"measurement": "exposure relative to the adult RP2D", "setting": "[2]; 150 mg/m^2 vs RP2D from either adult study", "result": "twice the exposure"}, {"measurement": "dose proportionality / linearity of PK", "setting": "[2]; 80–150 mg/m^2 dose range, single dose", "result": "linear; also recorded: proportional to dose"}, {"measurement": "CLp", "setting": "[2]; [9]", "result": "46.1 ± 12.0", "unit": "L/hr/m^2"}, {"measurement": "Vss", "setting": "[2]; [9]", "result": "276 ± 102", "unit": "L/m^2"}, {"measurement": "BSA-adjusted plasma clearance", "setting": "[2]; children <12 years (N=16)", "result": "49.4 ± 10.0", "unit": "L/hr/m^2"}, {"measurement": "plasma clearance", "setting": "[2]; females (N=9)", "result": "47.1 ± 9.7", "unit": "L/hr/m^2"}, {"measurement": "time plasma concentrations maintained above the IC50 for pCHK1 inhibition", "setting": "[2]; human, in vivo", "result": "approximately 24 hours"}, {"measurement": "Tmax", "setting": "[2]; human, intravenous", "result": "1.2 ± 0.5", "unit": "h"}, {"measurement": "half-life", "setting": "[2]; human, intravenous", "result": "8.9 ± 3.4", "unit": "h"}, {"measurement": "concentration at 24 h", "setting": "[2]; human, intravenous, 150 mg/m^2, median plasma concentration 24 hours after the first dose (C-24h)", "result": 13.4, "unit": "ng/mL"}, {"measurement": "concentration at 24 h", "setting": "[2]; human, intravenous, 150 mg/m^2, range of plasma concentration 24 hours after the first dose (C-24h)", "result": "7.6 to 43.6", "unit": "ng/mL"}, {"measurement": "AUC(0-inf)", "setting": "[2]; human, iv, 80 mg/m2", "result": "1730 ± 387", "unit": "ng·h/mL"}, {"measurement": "AUC(0-t)", "setting": "[2]; human, iv, 80 mg/m2", "result": "1620 ± 358", "unit": "ng·h/mL"}, {"measurement": "Cmax", "setting": "[2]; human, iv, 80 mg/m2", "result": "858 ± 311", "unit": "ng/mL"}, {"measurement": "Tmax", "setting": "[2]; human, iv, 80 mg/m2", "result": "1.4 ± 0.9", "unit": "h"}, {"measurement": "half-life", "setting": "[2]; human, iv, 80 mg/m2", "result": "7.6 ± 2.3", "unit": "h"}, {"measurement": "AUC(0-inf)", "setting": "[2]; human, iv, 100 mg/m2", "result": "2380 ± 712", "unit": "ng·h/mL"}, {"measurement": "AUC(0-t)", "setting": "[2]; human, iv, 100 mg/m2", "result": "2010 ± 416", "unit": "ng·h/mL"}, {"measurement": "Cmax", "setting": "[2]; human, iv, 100 mg/m2", "result": "984 ± 289", "unit": "ng/mL"}, {"measurement": "Tmax", "setting": "[2]; human, iv, 100 mg/m2", "result": "1.1 ± 0.2", "unit": "h"}, {"measurement": "half-life", "setting": "[2]; human, iv, 100 mg/m2", "result": "10 ± 3.9", "unit": "h"}, {"measurement": "AUC(0-inf)", "setting": "[2]; human, iv, 125 mg/m2", "result": "2640 ± 632", "unit": "ng·h/mL"}, {"measurement": "AUC(0-t)", "setting": "[2]; human, iv, 125 mg/m2", "result": "2460 ± 545", "unit": "ng·h/mL"}, {"measurement": "Cmax", "setting": "[2]; human, iv, 125 mg/m2", "result": "1230 ± 212", "unit": "ng/mL"}, {"measurement": "Tmax", "setting": "[2]; human, iv, 125 mg/m2", "result": "1.1 ± 0.1", "unit": "h"}, {"measurement": "half-life", "setting": "[2]; human, iv, 125 mg/m2", "result": "8.5 ± 4.5", "unit": "h"}, {"measurement": "AUC(0-inf)", "setting": "[2]; human, iv, 150 mg/m2", "result": "3680 ± 1060", "unit": "ng·h/mL"}, {"measurement": "AUC(0-t)", "setting": "[2]; human, iv, 150 mg/m2", "result": "3360 ± 898", "unit": "ng·h/mL"}, {"measurement": "Cmax", "setting": "[2]; human, iv, 150 mg/m2", "result": "1700 ± 822", "unit": "ng/mL"}, {"measurement": "Tmax", "setting": "[2]; human, iv, 150 mg/m2", "result": "1.2 ± 0.5", "unit": "h"}, {"measurement": "half-life", "setting": "[2]; human, iv, 150 mg/m2", "result": "9.2 ± 3.5", "unit": "h"}, {"measurement": "plasma clearance", "setting": "[2]; males (N=20)", "result": "45.6 ± 13.1", "unit": "L/hr/m^2"}, {"measurement": "BSA-adjusted plasma clearance", "setting": "[2]; ≥12 years (N=13)", "result": "42.2 ± 13.3", "unit": "L/hr/m^2"}, {"measurement": "CNS penetration", "setting": "[3]", "result": "adequate CNS penetration"}, {"measurement": "median AUC0–72h predicted for efficacy", "setting": "[4]; Calu-6 preclinical PK/PD model", "result": 1896, "unit": "ng·h/mL"}, {"measurement": "IC50 for pCHK1 inhibition (plasma concentration)", "setting": "[4]", "result": 14.1, "unit": "ng/ml"}]}]}
